# Where two headings read alike, the source gives them in different places.
# How the values were obtained:
# Assay in all cases: Kinase inhibitory activity profiling of RI-962@10 µM (406 kinases, Eurofins)
# Assay type in all cases: biochemical
# [1] = molecular target: panel of human kinases (kinase named in endpoint) (Homo sapiens, UniProt P09769); details: 10 µM; read-out: Activity (%), Fgr(h)
# Description: (§1) In vitro kinase activity assays were conducted through the Kinase Profiling Services provided by Eurofins (Eurofins, France). The protocol for the RIPK1 assay is briefly described as follows (Protocols for other kinases are very similar and can be found in http://www.eurofins.com/pharmadiscovery). RIPK1 kinase was incubated with the test compound in assay buffer containing 8 mM MOPS (pH 7.0), 0.2 mM EDTA, 250 μM […], 10 mM magnesium acetate, and 10 μM [γ-33P]-ATP for 15 min at room temperature. The reaction was initiated by the addition of the Mg/ATP mixture. After incubation for 40 min at room temperature, and the reaction was stopped by the addition of 3% phosphoric acid. A 10 μL portion of the reaction mixture was then spotted onto a P30 filter mat and washed four times for 4 min in 0.425% phosphoric acid and once in methanol prior to drying and scintillation counting.
# [2] = molecular target: panel of human kinases (kinase named in endpoint) (Homo sapiens, UniProt Q86Y07); details: 10 µM; read-out: Activity (%), VRK2(h)
# Description: as §1
# [3] = molecular target: panel of human kinases (kinase named in endpoint) (Homo sapiens, UniProt P54753); details: 10 µM; read-out: Activity (%), EphB3(h)
# Description: as §1
# [4] = molecular target: panel of human kinases (kinase named in endpoint) (Homo sapiens, UniProt P53671); details: 10 µM; read-out: Activity (%), LIMK2(h)
# Description: as §1
# [5] = molecular target: panel of human kinases (kinase named in endpoint) (Homo sapiens, UniProt P54756); details: 10 µM; read-out: Activity (%), EphA5(h)
# Description: as §1
# [6] = molecular target: panel of human kinases (kinase named in endpoint) (Homo sapiens, UniProt Q5MAI5); details: 10 µM; read-out: Activity (%), CDKL4(h)
# Description: as §1
# [7] = molecular target: panel of human kinases (kinase named in endpoint) (Homo sapiens, UniProt O14757); details: 10 µM; read-out: Activity (%), CHK1(h)
# Description: as §1
# [8] = molecular target: panel of human kinases (kinase named in endpoint) (Homo sapiens, UniProt P29323); details: 10 µM; read-out: Activity (%), EphB2(h)
# Description: as §1
# [9] = molecular target: panel of human kinases (kinase named in endpoint) (Homo sapiens, UniProt Q9UL54); details: 10 µM; read-out: Activity (%), TAO2(h)
# Description: as §1
# [10] = molecular target: panel of human kinases (kinase named in endpoint) (Homo sapiens, UniProt Q05513); details: 10 µM; read-out: Activity (%), PKCζ(h)
# Description: as §1
# [11] = molecular target: panel of human kinases (kinase named in endpoint) (Homo sapiens, UniProt P42336, E545K); details: 10 µM; read-out: Activity (%), PI3(p110a(E545K)/p85a)
# Description: as §1
# [12] = molecular target: panel of human kinases (kinase named in endpoint) (Homo sapiens, UniProt O75116); details: 10 µM; read-out: Activity (%), ROCK-II(h)
# Description: as §1
# [13] = molecular target: panel of human kinases (kinase named in endpoint) (Homo sapiens, UniProt P08069); details: 10 µM
# Description: as §1
# [14] = molecular target: panel of human kinases (kinase named in endpoint) (Homo sapiens, UniProt Q06418); details: 10 µM; read-out: Activity (%), Rse(h)
# Description: as §1
# [15] = molecular target: panel of human kinases (kinase named in endpoint) (Homo sapiens, UniProt Q9H2G2); details: 10 µM; read-out: Activity (%), SLK(h)
# Description: as §1
# [16] = molecular target: panel of human kinases (kinase named in endpoint) (Mus musculus, UniProt Q4JIM5); details: 10 µM; read-out: Activity (%), Arg(m)
# Description: as §1
# [17] = molecular target: panel of human kinases (kinase named in endpoint) (Homo sapiens, UniProt Q13464); details: 10 µM; read-out: Activity (%), ROCK-I(h)
# Description: as §1
# [18] = molecular target: panel of human kinases (kinase named in endpoint) (Homo sapiens, UniProt P07332); details: 10 µM; read-out: Activity (%), Fes(h)
# Description: as §1
# [19] = molecular target: panel of human kinases (kinase named in endpoint) (Homo sapiens, UniProt Q96SB4); details: 10 µM; read-out: Activity (%), SRPK1(h)
# Description: as §1
# [20] = molecular target: panel of human kinases (kinase named in endpoint) (Homo sapiens, UniProt Q9HC98); details: 10 µM; read-out: Activity (%), NEK6(h)
# Description: as §1
# [21] = molecular target: panel of human kinases (kinase named in endpoint) (Homo sapiens, UniProt P51956); details: 10 µM; read-out: Activity (%), NEK3(h)
# Description: as §1
# [22] = molecular target: panel of human kinases (kinase named in endpoint) (Homo sapiens, UniProt P07949); details: 10 µM; read-out: Activity (%), Ret(h)
# Description: as §1
# [23] = molecular target: panel of human kinases (kinase named in endpoint) (Homo sapiens, UniProt Q86UX6); details: 10 µM; read-out: Activity (%), STK32C(h)
# Description: as §1
# [24] = molecular target: panel of human kinases (kinase named in endpoint) (Homo sapiens, UniProt P22694); details: 10 µM; read-out: Activity (%), PKAcβ(h)
# Description: as §1
# [25] = molecular target: panel of human kinases (kinase named in endpoint) (Homo sapiens, UniProt P00533, L858R); details: 10 µM; read-out: Activity (%), EGFR(L858R)(h)
# Description: as §1
# panel of human kinases (kinase named in endpoint) (Homo sapiens, UniProt P08069), sequence (P08069 31-1367): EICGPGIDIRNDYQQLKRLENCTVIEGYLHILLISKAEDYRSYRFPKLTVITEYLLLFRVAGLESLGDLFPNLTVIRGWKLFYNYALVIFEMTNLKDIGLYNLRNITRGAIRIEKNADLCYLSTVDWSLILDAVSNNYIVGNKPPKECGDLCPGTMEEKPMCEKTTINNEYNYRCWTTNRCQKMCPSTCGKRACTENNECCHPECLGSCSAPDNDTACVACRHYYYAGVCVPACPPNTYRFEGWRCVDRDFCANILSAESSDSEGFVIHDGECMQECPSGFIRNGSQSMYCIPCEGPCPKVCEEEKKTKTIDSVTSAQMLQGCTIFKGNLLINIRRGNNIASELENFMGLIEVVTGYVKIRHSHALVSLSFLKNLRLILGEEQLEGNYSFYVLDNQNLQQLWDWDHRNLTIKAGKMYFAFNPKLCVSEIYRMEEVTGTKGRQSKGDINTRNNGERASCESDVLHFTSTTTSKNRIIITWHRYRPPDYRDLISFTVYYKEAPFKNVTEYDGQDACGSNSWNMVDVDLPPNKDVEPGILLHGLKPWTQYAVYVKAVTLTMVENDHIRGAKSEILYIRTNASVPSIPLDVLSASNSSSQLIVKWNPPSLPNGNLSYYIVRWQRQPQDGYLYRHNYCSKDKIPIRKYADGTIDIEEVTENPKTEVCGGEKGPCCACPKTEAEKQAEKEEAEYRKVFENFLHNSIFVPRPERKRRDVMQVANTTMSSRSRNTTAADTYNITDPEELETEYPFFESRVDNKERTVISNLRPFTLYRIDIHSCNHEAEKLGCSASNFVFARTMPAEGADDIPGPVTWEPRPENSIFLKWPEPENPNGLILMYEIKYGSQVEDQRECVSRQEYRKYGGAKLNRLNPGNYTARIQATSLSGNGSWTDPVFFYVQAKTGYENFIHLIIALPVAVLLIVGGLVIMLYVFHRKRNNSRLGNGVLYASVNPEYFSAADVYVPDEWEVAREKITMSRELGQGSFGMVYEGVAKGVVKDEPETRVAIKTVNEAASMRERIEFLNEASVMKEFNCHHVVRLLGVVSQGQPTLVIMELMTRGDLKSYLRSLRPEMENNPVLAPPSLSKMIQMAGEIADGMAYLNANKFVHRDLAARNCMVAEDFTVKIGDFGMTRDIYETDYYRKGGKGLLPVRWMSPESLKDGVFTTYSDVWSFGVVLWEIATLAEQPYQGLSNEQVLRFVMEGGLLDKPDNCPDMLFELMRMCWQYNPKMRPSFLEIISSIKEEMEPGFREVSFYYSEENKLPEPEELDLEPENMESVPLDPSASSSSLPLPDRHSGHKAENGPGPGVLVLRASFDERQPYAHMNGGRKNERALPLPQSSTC
# panel of human kinases (kinase named in endpoint) (Homo sapiens, UniProt Q86UX6), sequence (Q86UX6 whole entry): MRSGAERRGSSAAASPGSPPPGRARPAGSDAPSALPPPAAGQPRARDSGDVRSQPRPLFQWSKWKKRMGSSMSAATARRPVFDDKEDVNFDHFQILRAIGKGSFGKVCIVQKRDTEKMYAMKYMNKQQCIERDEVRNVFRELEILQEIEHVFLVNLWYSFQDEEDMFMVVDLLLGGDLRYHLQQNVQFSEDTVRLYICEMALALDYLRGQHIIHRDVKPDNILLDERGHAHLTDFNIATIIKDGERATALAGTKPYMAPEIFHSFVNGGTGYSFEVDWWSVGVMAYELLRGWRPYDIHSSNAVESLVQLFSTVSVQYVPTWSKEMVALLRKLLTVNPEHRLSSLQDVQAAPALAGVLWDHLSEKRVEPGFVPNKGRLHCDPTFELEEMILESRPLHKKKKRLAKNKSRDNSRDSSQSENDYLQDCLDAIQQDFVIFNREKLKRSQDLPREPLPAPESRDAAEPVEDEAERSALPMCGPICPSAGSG
# panel of human kinases (kinase named in endpoint) (Homo sapiens, UniProt Q96SB4), sequence (Q96SB4 whole entry): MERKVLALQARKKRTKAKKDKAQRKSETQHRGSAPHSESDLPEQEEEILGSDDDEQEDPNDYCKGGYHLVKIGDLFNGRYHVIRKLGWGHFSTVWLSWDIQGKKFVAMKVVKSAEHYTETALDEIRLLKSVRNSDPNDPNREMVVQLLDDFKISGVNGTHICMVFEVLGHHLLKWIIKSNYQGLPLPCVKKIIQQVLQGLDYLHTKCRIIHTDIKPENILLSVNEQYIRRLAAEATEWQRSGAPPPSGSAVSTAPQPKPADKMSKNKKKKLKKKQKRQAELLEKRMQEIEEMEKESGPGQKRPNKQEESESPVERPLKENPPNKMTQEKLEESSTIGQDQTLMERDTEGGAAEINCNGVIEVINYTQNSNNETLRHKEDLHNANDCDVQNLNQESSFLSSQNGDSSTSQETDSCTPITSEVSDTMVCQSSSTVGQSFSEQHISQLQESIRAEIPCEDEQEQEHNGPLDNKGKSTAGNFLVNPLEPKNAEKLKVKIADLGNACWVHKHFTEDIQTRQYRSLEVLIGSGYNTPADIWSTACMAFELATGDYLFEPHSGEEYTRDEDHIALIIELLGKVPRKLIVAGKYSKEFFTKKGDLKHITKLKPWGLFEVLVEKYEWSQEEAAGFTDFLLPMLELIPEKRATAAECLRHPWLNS
# panel of human kinases (kinase named in endpoint) (Homo sapiens, UniProt P07332), sequence (P07332 whole entry): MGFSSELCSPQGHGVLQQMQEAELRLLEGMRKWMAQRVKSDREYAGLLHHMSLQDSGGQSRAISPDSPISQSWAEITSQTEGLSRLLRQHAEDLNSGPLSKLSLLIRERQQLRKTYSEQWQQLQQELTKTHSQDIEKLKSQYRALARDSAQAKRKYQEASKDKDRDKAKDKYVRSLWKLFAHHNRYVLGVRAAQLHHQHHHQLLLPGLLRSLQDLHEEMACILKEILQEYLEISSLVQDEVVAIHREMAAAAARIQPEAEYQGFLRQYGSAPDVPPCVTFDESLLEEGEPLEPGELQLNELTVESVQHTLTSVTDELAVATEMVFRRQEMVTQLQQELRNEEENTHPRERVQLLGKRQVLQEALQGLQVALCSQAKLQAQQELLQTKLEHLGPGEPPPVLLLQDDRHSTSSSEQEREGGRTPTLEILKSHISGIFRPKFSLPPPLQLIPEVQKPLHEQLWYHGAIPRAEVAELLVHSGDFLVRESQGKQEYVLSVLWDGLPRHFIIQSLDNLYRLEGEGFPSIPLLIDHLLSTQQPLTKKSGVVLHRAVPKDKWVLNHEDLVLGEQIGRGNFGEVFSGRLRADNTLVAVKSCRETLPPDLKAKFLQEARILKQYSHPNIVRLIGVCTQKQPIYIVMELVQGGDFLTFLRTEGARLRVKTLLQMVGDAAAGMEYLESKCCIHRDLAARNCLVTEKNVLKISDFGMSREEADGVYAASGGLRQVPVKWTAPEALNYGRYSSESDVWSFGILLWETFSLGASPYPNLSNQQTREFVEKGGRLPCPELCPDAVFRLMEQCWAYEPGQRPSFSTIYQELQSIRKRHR
# panel of human kinases (kinase named in endpoint) (Homo sapiens, UniProt P29323), sequence (P29323 19-1055): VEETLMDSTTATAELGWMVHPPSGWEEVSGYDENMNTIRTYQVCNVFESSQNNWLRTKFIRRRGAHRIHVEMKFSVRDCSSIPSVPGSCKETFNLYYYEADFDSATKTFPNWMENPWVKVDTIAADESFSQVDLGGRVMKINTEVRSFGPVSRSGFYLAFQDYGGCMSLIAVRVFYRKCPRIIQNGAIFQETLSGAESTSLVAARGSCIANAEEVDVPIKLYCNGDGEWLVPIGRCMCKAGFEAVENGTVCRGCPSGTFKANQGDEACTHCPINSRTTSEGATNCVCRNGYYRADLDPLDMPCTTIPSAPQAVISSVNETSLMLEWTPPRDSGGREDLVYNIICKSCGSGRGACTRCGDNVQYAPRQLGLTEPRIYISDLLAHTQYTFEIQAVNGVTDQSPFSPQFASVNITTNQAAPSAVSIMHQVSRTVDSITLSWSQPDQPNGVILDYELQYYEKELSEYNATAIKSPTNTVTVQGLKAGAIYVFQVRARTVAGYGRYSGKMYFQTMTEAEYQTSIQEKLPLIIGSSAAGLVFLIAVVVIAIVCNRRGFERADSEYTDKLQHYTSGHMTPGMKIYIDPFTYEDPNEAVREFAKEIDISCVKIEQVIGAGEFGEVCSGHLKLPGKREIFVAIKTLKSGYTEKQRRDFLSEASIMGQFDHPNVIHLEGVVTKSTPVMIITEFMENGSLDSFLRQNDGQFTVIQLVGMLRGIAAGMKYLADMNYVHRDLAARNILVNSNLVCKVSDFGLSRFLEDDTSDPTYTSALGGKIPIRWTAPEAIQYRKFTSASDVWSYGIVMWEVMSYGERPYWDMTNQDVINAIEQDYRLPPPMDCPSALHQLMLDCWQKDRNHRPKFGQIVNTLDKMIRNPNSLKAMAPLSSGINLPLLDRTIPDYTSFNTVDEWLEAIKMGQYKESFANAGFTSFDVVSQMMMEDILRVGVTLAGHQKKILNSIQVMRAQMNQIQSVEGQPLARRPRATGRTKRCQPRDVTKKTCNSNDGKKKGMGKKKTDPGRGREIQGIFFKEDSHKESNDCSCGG
# panel of human kinases (kinase named in endpoint) (Homo sapiens, UniProt Q05513), sequence (Q05513 whole entry): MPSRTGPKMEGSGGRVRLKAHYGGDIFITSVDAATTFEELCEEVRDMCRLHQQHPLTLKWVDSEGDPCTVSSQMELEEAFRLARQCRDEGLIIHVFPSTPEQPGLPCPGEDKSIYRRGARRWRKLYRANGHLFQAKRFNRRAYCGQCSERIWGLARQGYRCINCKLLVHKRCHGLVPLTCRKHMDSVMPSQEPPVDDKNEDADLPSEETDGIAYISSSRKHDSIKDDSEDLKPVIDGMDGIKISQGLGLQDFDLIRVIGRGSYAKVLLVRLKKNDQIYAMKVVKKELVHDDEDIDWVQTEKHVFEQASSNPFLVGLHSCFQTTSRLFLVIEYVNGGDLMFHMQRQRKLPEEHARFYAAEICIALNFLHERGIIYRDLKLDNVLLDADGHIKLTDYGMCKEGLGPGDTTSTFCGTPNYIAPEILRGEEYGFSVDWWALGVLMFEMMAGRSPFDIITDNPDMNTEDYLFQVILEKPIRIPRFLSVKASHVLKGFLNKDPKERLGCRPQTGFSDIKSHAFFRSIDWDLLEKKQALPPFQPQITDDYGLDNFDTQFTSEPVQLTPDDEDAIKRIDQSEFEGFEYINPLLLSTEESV
structure (smiles),measurement,setting,value
CC(C)C(=O)Nc1nc2cc(-c3ccc4c(c3)c(C(=O)NC(C)c3ccccc3)cn4C)ccn2n1 (centres unmarked) [RI-962],activity at 10 µM,[1],96%
same,activity at 10 µM,[2],89%
same,activity at 10 µM,[3],77%
same,activity at 10 µM,[4],101%
same,activity at 10 µM,[5],93%
same,activity at 10 µM,[6],70%
same,activity at 10 µM,[7],124%
same,activity at 10 µM,[8],73%
same,activity at 10 µM,[9],92%
same,activity at 10 µM,[10],119%
same,activity at 10 µM,[11],96%
same,activity at 10 µM,[12],90%
same,activity at 10 µM,"[13]; read-out: Activity (%), IGF-1R(h)",94%
same,activity at 10 µM,"[13]; read-out: Activity (%), IGF-1R(h), activated",92%
same,activity at 10 µM,[14],108%
same,activity at 10 µM,[15],84%
same,activity at 10 µM,[16],90%
same,activity at 10 µM,[17],99%
same,activity at 10 µM,[18],99%
same,activity at 10 µM,[19],102%
same,activity at 10 µM,[20],99%
same,activity at 10 µM,[21],103%
same,activity at 10 µM,[22],114%
same,activity at 10 µM,[23],76%
same,activity at 10 µM,[24],117%
same,activity at 10 µM,[25],93%
